Laboratory results from PubChem BioAssay AID720570 (Broad Institute, 2013).

System: TC71 Ewing sarcoma viability, CellTiter-Glo ATP, 72 h
Assay: cytotoxicity in EWS/Fli1-dependent TC71 cells – cell-based, luminescence, cherry-picked samples, retest, confirmation (AID 720570)

SMILES	AC35
COc1ccc(NC(=O)N2CCCCN3[C@@H](CO)[C@H](c4ccc(C5=CCCCC5)cc4)[C@@H]3C2)cc1	23.3 µM
C[C@@H]1CN([C@@H](C)CO)C(=O)c2cc(NC(=O)c3ccccc3)ccc2O[C@@H](C)CCCCO[C@H]1CN(C)C(=O)Nc1cccc2ccccc12	0.679 µM
CC1(C(=O)NCc2ccco2)Cc2c(-c3cccc(C(N)=O)c3)ccnc2O1 (stereo not drawn)	7.99 µM
CN(C)c1ccc(-c2ccnc3c2CC(C)(C(=O)NCc2ccco2)O3)cc1 (stereo not drawn)	10.4 µM
COc1ccc(S(=O)(=O)N2CCCc3nc(-c4ccc(F)cc4)ccc32)cc1	7.3 µM
CC(=O)OC1CC(OC2C(O)CC(OC3C(O)CC(OC4CCC5(C)C(CCC6C5CCC5(C)C(C7=CC(=O)OC7)C(O)CC65O)C4)OC3C)OC2C)OC(C)C1OC1OC(CO)C(O)C(O)C1O (stereo not drawn)	2.35 µM
C[C@@H]1CN([C@@H](C)CO)C(=O)c2cccc(NS(=O)(=O)c3ccc(Cl)cc3)c2O[C@@H]1CN(C)Cc1ccc(C(=O)Nc2ccccc2N)cc1	9.9 µM
CC(=O)N1CCCC(c2cc(C(=O)Nc3ccccc3)no2)C1 (stereo not drawn)	12.7 µM
C[C@@H]1CN([C@@H](C)CO)C(=O)Cc2cc(NC(=O)C3CCCCC3)ccc2O[C@H]1CN(C)Cc1ccc(C(=O)Nc2ccccc2N)cc1	15.6 µM
CN(C[C@H]1N[C@@H](CO)[C@@H]1c1ccc(C2=CCCC2)cc1)C(=O)c1ccc(F)cc1	3.92 µM
CC[C@@H]1C[C@H]2CC[C@H](O2)[C@H](C)C(=O)O[C@@H](C)C[C@@H]2CC[C@@H](O2)[C@@H](C)C(=O)O[C@H](C)C[C@H]2CC[C@H](O2)[C@H](C)C(=O)O[C@@H](C)C[C@@H]2CC[C@@H](O2)[C@@H](C)C(=O)O1	0.0639 µM
C[C@@H]1CN([C@@H](C)CO)C(=O)c2cccc(NS(=O)(=O)c3ccccc3)c2O[C@@H]1CN(C)Cc1ccc(C(=O)Nc2ccccc2N)cc1	11.9 µM
COc1ccc(/C=C/C(=O)c2ccc(C(=O)/C=C/c3ccc(OC)c(OC)c3)cc2)cc1OC	20.4 µM
CCCNC(=O)N1[C@H](C#N)[C@H](c2ccc(C#Cc3cccc(F)c3)cc2)[C@H]1CO	16.1 µM
CC(=O)Oc1ccc(-c2ccc(C(=O)Nc3cccc(S(=O)(=O)N4CCOCC4)c3)cc2)cc1	3.71 µM
COc1cccc(OC)c1C(=O)Nc1cc(C)nn1-c1nc2ccccc2[nH]1	18.2 µM
COc1ccc(S(=O)(=O)Nc2cccc3c2O[C@H](CN(C)Cc2ccc(C(=O)Nc4ccccc4N)cc2)[C@H](C)CN([C@@H](C)CO)C3=O)cc1	5.62 µM
CCCCC[C@H](C)N1C[C@H](COCc2ccccc2)Oc2cc(N3CC[C@@H](N(C)C)C3)ccc2S1(=O)=O	14.2 µM
C[C@@H]1CN([C@H](C)CO)C(=O)c2cc(NC(=O)c3ccccc3)ccc2O[C@@H](C)CCCCO[C@H]1CN(C)C(=O)Nc1cccc2ccccc12	1.58 µM
N/C(=C\C(=O)c1cc(Cl)ccc1O)C(Cl)(Cl)Cl	9.12 µM
O=C(c1nnsc1S(=O)c1ccc(Cl)cc1)N1CCOCC1 (stereo not drawn)	21.9 µM
CCc1nc(N)nc(N)c1-c1ccc(Cl)cc1	6.12 µM

SMILES	AC35
Cc1nn(Cc2ccccc2Cl)c2sc(C(=O)Nc3ccccc3N3CCOCC3)cc12	13.2 µM
O=C(Nc1ccc(F)cc1)N1CCCCN2[C@@H](CO)[C@H](c3ccc(C4=CCCCC4)cc3)[C@@H]2C1	22.4 µM
Cc1ccc2c(=O)n3c(nc2c1)C(Cc1ccc(O)cc1)NC(=O)c1cc2ccccc2cc1-3 (stereo not drawn)	9.76 µM
Cc1noc(C)c1C(=O)Nc1sccc1C(N)=O	13.6 µM
CC(=O)OC1CC2(O)C3CCC4CC(O)CCC4(C)C3CCC2(C)C1C1=CC(=O)OC1 (stereo not drawn)	0.797 µM
C[C@H]1CN([C@@H](C)CO)C(=O)Cc2cc(NC(=O)CCC(F)(F)F)ccc2O[C@H]1CN(C)Cc1ccc(C(=O)Nc2ccccc2N)cc1	9.19 µM
C/C(=N\NC(=O)c1n[nH]c2c1CCC2)c1cccs1	20.2 µM
O=C(NC(c1ccc(F)cc1)c1ccc2ccccc2n1)C1CCN(Cc2cccc(C(F)(F)F)c2)CC1 (stereo not drawn)	11.2 µM
O=c1[nH]c(=O)n([C@H]2C[C@H](O)[C@@H](CO)O2)cc1C(F)(F)F	2.91 µM
NC(Cc1ccc(C(F)(F)F)cc1)c1csc(NC(=O)Nc2ccccc2Cc2ccccc2)n1 (stereo not drawn)	12.7 µM
O=c1ccc2ccccc2c2ccccc12	10.5 µM
C[C@]12CC[C@H](O)C[C@H]1CC[C@@H]1[C@@H]2C[C@@H](O)[C@]2(C)[C@@H](C3=CC(=O)OC3)CC[C@]12O	3.35 µM
O=C(Nc1ccc2c(c1)OCO2)N1C[C@@H]2N[C@H](C1)C2c1ccc(C=Cc2ccccc2)cc1 (stereo partly drawn)	12.8 µM
C=C1C(=O)OC2C1CCC(C)C1C=CC(=O)C12C (stereo not drawn)	13.8 µM
CCN1C/C(=C/c2ccc(N3CCOCC3)cc2)C(=O)/C(=C/c2ccc(N3CCOCC3)cc2)C1	5.92 µM
CCc1ccc(/C=C2\SC(=S)N(CCCC(=O)NCCCN3CCOCC3)C2=O)cc1	22.6 µM
CN(C)CC1CCC/C(=C\c2ccc(OC(=O)c3ccc(Cl)cc3)cc2)C1=O (stereo not drawn)	3.4 µM
CCOc1ccc(OCc2ccc(C(=O)NN=Cc3ccc[nH]3)cc2)cc1	0.504 µM
Cc1cccc(/C=C(\c2nc3ccccc3[nH]2)S(=O)(=O)c2ccccc2)c1	9.6 µM
C[C@H]1CN([C@@H](C)CO)S(=O)(=O)c2ccc(C#CC(C)(C)O)cc2O[C@@H]1CN(C)Cc1ccc(-c2ccccc2)cc1	0.414 µM
O=C1NC(=O)N(Cc2ccccc2)C(=O)/C1=C\C=C\c1ccco1	10.2 µM
